≈ marks a conversion by molar mass, not a printed value.
Assays:
M/M cultures = assay: Viability of M/M cultures; type: cell-based, human; conditions: 100 µg/ml
Description: Monocyte/macrophage (M/M) lineage cells can be infected by HSV-2 and HIV-1. M/M reside in genital herpes lesions and are thought to be reservoirs of HIV [6], [23]. […] Lower concentrations were dose-dependently inhibitory, with EC50 values ranging between 0.02 and 0.2 µg/ml (Table 1, Table 3).

PBMC = PBMC viability (trypan blue dye exclusion, flow cytometry); type: cell-based, human; conditions: 20, 100 and 500 µg/ml
HSV-2 (NS and RV-194) = assay: Virus yield reduction assay in HEL cells, HSV-2 clinical isolates; conditions: for EC90: Human alphaherpesvirus 2, HEL
Description: These assays were carried out in HEL cell monolayers at different times post infection. […] After 2 h at 37°C, the cells were washed and medium containing different concentrations of PMEO-DAPym (in duplicate) was added. Following 24, 48, and 72 h of incubation, we released the viruses by freeze-thawing and then titrated them using a plaque assay in HEL cells.

HSV-1 and HSV-2 = assay: Organotypic epithelial raft cultures of PHKs, virus production; type: cell-based; conditions: HSV-1 and HSV-2, 20 µg/ml
Description: Figure 3 Inhibitory activities of tenofovir, adefovir, and PMEO-DAPym against laboratory HSV-1 and HSV-2 strains in organotypic epithelial raft cultures. Panels A (HSV-1) and B (HSV-2): Drugs at different concentrations were added to the raft cell cultures on the day of infection (10 days after initiation of differentiation). The drugs remained in the presence of the cells for 5 days until the rafts were frozen for determination of virus production with a plaque assay in HEL cell cultures. Error bars represent S.D.
The epithelial cells were allowed to stratify. […] Virus production per raft was then calculated.

HSV-2 (G) = tested on: HSV-2 (G); set-up: method as in PMID 22018238; conditions: tonsilar tissue; cited from earlier work

SMILES: Nc1cc(OCCOCP(=O)(O)O)nc(N)n1 [PMEO-DAPym, 6-phosphonylmethoxyethoxy-2,4-diaminopyrimidine]
- effect on the viability of M/M cultures (M/M cultures): No effect on the viability
- PBMC viability (PBMC): did not affect PBMC viability
- EC90 (HSV-2 (NS and RV-194); 24 h, Strain NS, moi = 1x10^-3, 24 hours): < 1 µg/mL
- EC90 (HSV-2 (NS and RV-194); 24 h, Strain NS, moi = 1x10^-4, 24 hours): < 1 µg/mL
- EC90 (HSV-2 (NS and RV-194); 24 h, Strain RV-194, moi = 1x10^-3, 24 hours): 2.08 µg/mL (≈ 7.87 µM)
- EC90 (HSV-2 (NS and RV-194); 24 h, Strain RV-194, moi = 1x10^-4, 24 hours): < 1 µg/mL
- EC90 (HSV-2 (NS and RV-194); 48 h, Strain NS, moi = 1x10^-3, 48 hours): < 1 µg/mL
- EC90 (HSV-2 (NS and RV-194); 48 h, Strain NS, moi = 1x10^-4, 48 hours): < 1 µg/mL
- EC90 (HSV-2 (NS and RV-194); 48 h, Strain RV-194, moi = 1x10^-3, 48 hours): < 1 µg/mL
- EC90 (HSV-2 (NS and RV-194); 48 h, Strain RV-194, moi = 1x10^-4, 48 hours): < 1 µg/mL
- EC90 (HSV-2 (NS and RV-194); 72 h, Strain NS, moi = 1x10^-3, 72 hours): 1.34 µg/mL (≈ 5.07 µM)
- EC90 (HSV-2 (NS and RV-194); 72 h, Strain NS, moi = 1x10^-4, 72 hours): < 1 µg/mL
- EC90 (HSV-2 (NS and RV-194); 72 h, Strain RV-194, moi = 1x10^-3, 72 hours): 1 µg/mL (≈ 3.79 µM)
- EC90 (HSV-2 (NS and RV-194); 72 h, Strain RV-194, moi = 1x10^-4, 72 hours): < 1 µg/mL
- EC99 (HSV-2 (NS and RV-194); Strain NS, moi = 1x10^-3, 24 hours): 3.0 µg/mL
- EC99 (HSV-2 (NS and RV-194); Strain NS, moi = 1x10^-3, 48 hours): 3.28 µg/mL
- EC99 (HSV-2 (NS and RV-194); Strain NS, moi = 1x10^-3, 72 hours): 3.63 µg/mL
- EC99 (HSV-2 (NS and RV-194); Strain NS, moi = 1x10^-4, 24 hours): 3.6 µg/mL
- EC99 (HSV-2 (NS and RV-194); Strain NS, moi = 1x10^-4, 48 hours): 1.0 µg/mL
- EC99 (HSV-2 (NS and RV-194); Strain NS, moi = 1x10^-4, 72 hours): 2.3 µg/mL
- EC99 (HSV-2 (NS and RV-194); Strain RV-194, moi = 1x10^-3, 24 hours): 7.15 µg/mL
- EC99 (HSV-2 (NS and RV-194); Strain RV-194, moi = 1x10^-3, 48 hours): 1.0 µg/mL
- EC99 (HSV-2 (NS and RV-194); Strain RV-194, moi = 1x10^-3, 72 hours): 3.58 µg/mL
- EC99 (HSV-2 (NS and RV-194); Strain RV-194, moi = 1x10^-4, 24 hours): < 1 µg/mL
- EC99 (HSV-2 (NS and RV-194); Strain RV-194, moi = 1x10^-4, 48 hours): 1.58 µg/mL
- EC99 (HSV-2 (NS and RV-194); Strain RV-194, moi = 1x10^-4, 72 hours): 2.62 µg/mL

SMILES: C[C@H](Cn1cnc2c(N)ncnc21)OCP(=O)(O)O [Tenofovir, 9-(2-phosphonylmethoxypropyl)adenine]
- reduction of herpesvirus replication (HSV-1 and HSV-2): < 0.5 log10
- concentration that comparably inhibited HSV-2 replication (HSV-2 (G)): 240 µg/mL

— PMC3723632, “A Multi-targeted Drug Candidate with Dual Anti-HIV and Anti-HSV Activity” (PLoS Pathogens, 2013)
